According to patent US20240261266A1, “BENZIMIDAZOLE COMPOUND OR SALT THEREOF, CANINE FILARIASIS CONTROL AGENT CONTAINING SAME, AND METHOD OF USE THEREOF” (NIHON NOHYAKU CO., LTD., priority 2021, published 2024):

Test system: Canine filariae (Dirofilaria immitis) L-3 stage larvae
Experiment: Impact evaluation test on growth of canine filariae (L3 to L4)
Conditions: 168 h, read-out: growth inhibition rate (growth from L3-stage larvae to L4-stage larvae)

`CCCCC#Cc1ccc(-c2nc3c(Br)cc(Br)cc3[nH]2)o1` [Compound 1-11, 4,6-dibromo-2-(5-(1-hexynyl)-2-furyl)benzimidazole] gave an inhibition at 50 ppm of no less than 50%.
